Experimental data reported in paper PMC3532034 (The Journal of neuroscience : the official journal of the …, 2012).

Molecular target: LRRK2 (leucine-rich repeat kinase 2) (Homo sapiens, UniProt Q5S007)
Assay: in vitro radiometric kinase assay with recombinant purified LRRK2
Format: biochemical

LRRK2 (leucine-rich repeat kinase 2), sequence (Q5S007 970-2527 limits assumed): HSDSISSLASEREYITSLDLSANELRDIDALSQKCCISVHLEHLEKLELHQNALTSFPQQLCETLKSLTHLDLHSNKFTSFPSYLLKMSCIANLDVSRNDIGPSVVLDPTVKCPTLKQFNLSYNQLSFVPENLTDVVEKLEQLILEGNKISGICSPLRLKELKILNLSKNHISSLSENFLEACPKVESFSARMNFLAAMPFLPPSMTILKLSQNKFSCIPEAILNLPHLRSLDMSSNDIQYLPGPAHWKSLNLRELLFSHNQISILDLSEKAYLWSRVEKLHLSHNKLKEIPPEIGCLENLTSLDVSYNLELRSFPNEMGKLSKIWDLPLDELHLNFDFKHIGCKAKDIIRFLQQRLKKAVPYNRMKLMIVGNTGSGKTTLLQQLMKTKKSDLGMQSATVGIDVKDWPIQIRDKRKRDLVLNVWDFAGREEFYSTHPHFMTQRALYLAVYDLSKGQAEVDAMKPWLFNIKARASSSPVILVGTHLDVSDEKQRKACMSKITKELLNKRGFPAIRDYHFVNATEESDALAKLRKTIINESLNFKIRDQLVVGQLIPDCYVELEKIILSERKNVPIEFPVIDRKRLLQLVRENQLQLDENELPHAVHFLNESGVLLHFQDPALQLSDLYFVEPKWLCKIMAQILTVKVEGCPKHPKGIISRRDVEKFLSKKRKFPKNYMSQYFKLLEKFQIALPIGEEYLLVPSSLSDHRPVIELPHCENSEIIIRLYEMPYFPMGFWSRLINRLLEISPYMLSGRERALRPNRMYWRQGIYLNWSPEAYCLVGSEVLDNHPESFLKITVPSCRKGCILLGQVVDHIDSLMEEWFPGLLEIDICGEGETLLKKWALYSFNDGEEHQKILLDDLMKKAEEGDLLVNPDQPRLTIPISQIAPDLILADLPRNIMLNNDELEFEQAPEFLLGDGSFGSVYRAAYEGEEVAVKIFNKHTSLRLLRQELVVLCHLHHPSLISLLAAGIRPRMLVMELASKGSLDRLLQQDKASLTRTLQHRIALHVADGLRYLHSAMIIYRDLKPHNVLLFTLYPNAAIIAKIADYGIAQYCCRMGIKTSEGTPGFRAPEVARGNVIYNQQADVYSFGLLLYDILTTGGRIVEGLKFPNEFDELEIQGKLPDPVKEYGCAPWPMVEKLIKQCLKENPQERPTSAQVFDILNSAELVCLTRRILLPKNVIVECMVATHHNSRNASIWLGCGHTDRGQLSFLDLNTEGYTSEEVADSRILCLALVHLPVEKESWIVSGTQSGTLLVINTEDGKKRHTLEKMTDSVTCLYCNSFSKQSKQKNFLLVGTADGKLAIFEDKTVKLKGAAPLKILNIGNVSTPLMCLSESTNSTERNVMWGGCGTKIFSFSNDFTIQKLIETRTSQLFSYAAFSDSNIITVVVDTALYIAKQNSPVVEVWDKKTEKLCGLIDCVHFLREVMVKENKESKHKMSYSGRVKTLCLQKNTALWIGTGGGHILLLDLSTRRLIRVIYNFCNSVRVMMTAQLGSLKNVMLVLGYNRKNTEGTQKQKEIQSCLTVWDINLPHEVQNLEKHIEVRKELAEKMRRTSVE

- IC50: 40.3 nM
SMILES: COc1cc(C(=O)N2CCC(N3CCN(C)CC3)CC2)ccc1Nc1ncc2c(n1)N(C)c1ccccc1C(=O)N2C [L2in1]
